Assay results published in ChEMBL document CHEMBL1135293, “Amino acid derived sulfonamide hydroxamates as inhibitors of procollagen C-proteinase. Part 2: Solid-phase optimization of side chains” (Bioorg Med Chem Lett, 2002).

These compounds were tested against T1, Bone morphogenetic protein 1 (Homo sapiens, UniProt P13497) (assay: Inhibitory activity against procollagen C-proteinase (PCP).).
T1 sequence (P13497 whole entry): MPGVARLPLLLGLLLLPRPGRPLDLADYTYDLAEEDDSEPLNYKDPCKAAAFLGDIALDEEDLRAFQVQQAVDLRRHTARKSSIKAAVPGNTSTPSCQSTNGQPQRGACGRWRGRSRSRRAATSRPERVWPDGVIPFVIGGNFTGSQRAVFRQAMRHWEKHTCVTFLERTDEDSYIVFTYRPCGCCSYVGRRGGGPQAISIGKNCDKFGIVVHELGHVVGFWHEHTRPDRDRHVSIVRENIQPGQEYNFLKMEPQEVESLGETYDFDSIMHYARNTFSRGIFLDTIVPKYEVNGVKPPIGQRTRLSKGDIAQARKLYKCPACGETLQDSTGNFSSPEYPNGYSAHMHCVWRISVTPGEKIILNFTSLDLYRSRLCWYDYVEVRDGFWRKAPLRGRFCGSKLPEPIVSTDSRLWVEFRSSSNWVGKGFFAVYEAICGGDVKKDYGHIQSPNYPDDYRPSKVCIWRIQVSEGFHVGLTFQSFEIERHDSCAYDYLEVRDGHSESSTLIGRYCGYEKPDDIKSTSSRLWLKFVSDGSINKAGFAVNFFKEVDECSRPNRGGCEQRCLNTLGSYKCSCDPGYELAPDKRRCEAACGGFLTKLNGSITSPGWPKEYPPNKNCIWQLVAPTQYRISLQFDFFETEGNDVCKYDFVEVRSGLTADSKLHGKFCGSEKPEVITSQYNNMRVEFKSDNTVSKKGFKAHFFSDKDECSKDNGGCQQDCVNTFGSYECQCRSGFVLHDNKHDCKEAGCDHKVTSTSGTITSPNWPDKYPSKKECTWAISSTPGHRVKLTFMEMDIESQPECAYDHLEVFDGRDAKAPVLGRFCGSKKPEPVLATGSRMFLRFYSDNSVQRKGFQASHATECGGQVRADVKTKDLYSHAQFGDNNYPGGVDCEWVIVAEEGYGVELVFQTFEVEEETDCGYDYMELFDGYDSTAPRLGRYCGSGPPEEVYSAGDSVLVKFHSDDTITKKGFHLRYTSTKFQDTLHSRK
With COc1ccc(S(=O)(=O)N(Cc2ccc(C(C)C)cc2)[C@H](C)C(=O)O)cc1 the IC50 was 350 nM. For COc1ccc(S(=O)(=O)N(Cc2ccc(C)cc2)[C@H](Cc2cccs2)C(=O)NO)cc1, the IC50 was 110 nM. Compound COc1ccc(S(=O)(=O)N(Cc2ccc(F)c(F)c2)[C@H](Cc2cccs2)C(=O)NO)cc1 has an IC50 of 80 nM. With COc1ccc(S(=O)(=O)N(Cc2ccc3c(c2)OCO3)[C@H](COCc2ccccc2)C(=O)O)cc1 the IC50 was 380 nM.
